Experimental data: PubChem BioAssay (NCI)
Values joined by “and” are separate entries in the source; they are usually repeats but may differ in a detail not shown here. Equal entries are not always repeated.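 Exposure lasted 48 hours, with cells grown in 96-well plates and compounds tested at five concentrations. GI50 marks 50% less growth. TGI: total growth inhibition.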

Legend:
Assay in all cases: NCI anticancer screen, dose series, 48 h
SW-620 colon = system: SW-620 colon
EKVX NSCLC = system: EKVX NSCLC
CCRF-CEM leukemia = system: CCRF-CEM leukemia
HL-60(TB) leukemia = system: HL-60(TB) leukemia
NCI-H460 lung = system: NCI-H460 lung
PC-3 prostate = system: PC-3 prostate
786-0 renal = system: 786-0 renal
RXF 393 renal = system: RXF 393 renal
NCI-H226 lung = system: NCI-H226 lung
KM12 colon = system: KM12 colon

SMILES	TGI (SW-620 colon) [µM]	TGI (EKVX NSCLC) [µM]	TGI (CCRF-CEM leukemia) [µM]	TGI (HL-60(TB) leukemia)	TGI (NCI-H460 lung) [µM]	TGI (PC-3 prostate) [µM]	TGI (786-0 renal) [µM]	TGI (RXF 393 renal) [µM]	TGI (NCI-H226 lung) [µM]	TGI (KM12 colon) [µM]	GI50 (SW-620 colon) [µM]	GI50 (EKVX NSCLC) [µM]	GI50 (CCRF-CEM leukemia) [µM]	GI50 (HL-60(TB) leukemia) [µM]	GI50 (NCI-H460 lung) [µM]	GI50 (PC-3 prostate) [µM]	GI50 (786-0 renal) [µM]	GI50 (RXF 393 renal) [µM]	GI50 (NCI-H226 lung) [µM]	GI50 (KM12 colon) [µM]
CC1(C)C(=O)/C=C\C(=O)C(C)(C)C(=O)/C=C\C(=O)C(C)(C)C(=O)/C=C\C(=O)C(C)(C)C(=O)/C=C\C1=O	28.1	69.6	23.4	10.4 µM	> 100	> 100	49.1	34.1	> 86.5	> 72.8										
Cc1ccc(C(SCC(N)C(=O)O)(c2ccccc2)c2ccccc2)cc1 (stereo not drawn)	> 69.8	> 100	> 100		14.8	> 100	2.43	> 100	42.9	5.98	0.0437	0.21	0.0832	0.0878	0.0718	0.075	0.175	0.103	9.29	0.0983
C/C=C/[C@H]1O[C@@H]2C(=C[C@H]1O)C(=O)O[C@H]2C	14.2	30.8		> 100 µM	> 100	30.8	28.7	67.7	48.1	> 78	3.19	13.4		35.7	> 92	14.8	13.8	18.9	18.4	33.3
COc1cccc2c1C(=O)c1c(O)c3c(c(O)c1C2=O)C[C@@](O)(C(=O)CO)CC3OC1CC(O)C(O)C(C)O1 (stereo partly drawn)	17.3	7.49	> 35.4	0.55 µM	1.8	2.39	12.5	0.957	0.219	7.49										
CCOC(=O)c1c(C)nc2c(c1N)CC(=O)N2CCc1ccccc1	11.1	68.8	14.4	13.1 µM	14.1	24.2	17.1	15.3	69	15.5	0.47	6.06	0.389	0.374	1.77	0.579	0.466	4.05	18.7	0.35
C/C(=N\NC(=S)N1CC2CCC(CC2)C1)c1cccc(C)n1	31.8	4.63		4.45 µM	5.53	15.6	11.7	14.8	7.73	14.8	0.383	0.326	0.000124	0.00016	0.0633					
Cn1c2ccccc2c2c3[nH][nH]c(=O)c3c3c4ccccc4[nH]c3c21	14.3	8.1	10.2	6 µM	10.8	11.3	31.6	3.57	22.6	10.5	2.4	2.41	2.89	2.46	1.57	2.03	3.06	1.51	2.34	0.493
COc1ccc(/C=C2\CN(Cc3cn(CCNc4ccnc5cc(Cl)ccc45)nn3)C/C(=C\c3ccc(OC)c(OC)c3)C2=O)cc1OC	6.15		> 100	9.37 µM	5.74	> 100	12.4	3.62	21	3.6	2.32		2.54	2.42	2.22	3.57	3.35	1.81	4.04	1.87
c1cncc(C2Nc3cccc4cccc(c34)N2)c1	36.3	> 100	> 100	> 100 µM	> 100	46.7	> 100	33	> 100	97.7	18.4	36	22.6	36.6	> 100	18.5	> 100	16.8	80.5	30.8
CCOC(=O)c1oc2ccc([N+](=O)[O-])c3c2c1CCC3	> 100	> 100	> 100	> 100 µM	> 100	> 100	84.9	59.6	> 100	> 100										
CCCCC(=O)N/N=C/c1c(O)ccc2ccccc12	> 100	7.92	1.28		> 100	> 57.5	> 59.2	15.9	> 70.4	> 100	3.54	1.75	0.267	0.452	1.36	0.953	3.65	2.01	13.7	2.28
O=S1(=O)CS(=O)(=O)OCCO1	321	273	252	93.1 µM and 61.8 µM	69.9	665	159	118	172	121				23.9	18.1		35.6	> 94.8	> 93.7	
O=C(O)CCc1c2ccc(=O)c(O)c-2oc2c(O)c(O)ccc12	59.9	> 100	13.8	> 100 µM	> 100	> 100	> 100	> 100		> 100										
Cc1[nH]nc2c1N=C(c1ccccc1F)c1cc(C(N)=O)ccc1N2	> 25		> 14.9	14.4 µM	> 25	> 25	> 25	6.15	6.38	> 16.3	2.34		1.15	5.97	3.33	2.26	2.82	0.975	0.852	1.32
Oc1ccc(CCNCc2cc3c(cc2Br)OCO3)cc1	> 100	> 100	> 100	84.4 µM	> 100	> 100	> 100	> 100	> 100											
Cc1ccn2c(CCc3nnc4cc(C)ccn34)nnc2c1	> 100	> 100		0.623 µM	> 100	> 100	> 100	> 100	> 100	> 100										
